Where “and” joins values, the source holds several entries; their conditions need not be identical. Identical values can stand only once.
Experiment: xn = mol fraction of the nth substance listed

CCO + CCCC[n+]1ccn(C)c1.O=S(=O)([N-]S(=O)(=O)C(F)(F)F)C(F)(F)F
100 kPa, x2 = 0
Conditions | viscosity [mPa·s]
297.55 K | 1.11
297.85 K | 1.1
298.15 K | 1.1
301.48 K | 1.04
303.3 K | 1.01
309.67 K | 0.91
312.7 K | 0.86
313 K | 0.86
313.3 K | 0.85
313.61 K | 0.85
316.33 K | 0.8
319.36 K | 0.76
319.67 K | 0.76

CCO + CC[n+]1ccn(C)c1.[I-]
Conditions | electrical conductivity [S/m]
298.15 K, 100 kPa, x2 = 0 | 5.54e-05

CCC(=O)[O-].C[n+]1ccn(CCO)c1 + O
100 kPa
Conditions | viscosity [mPa·s]
298.15 K, x1 = 0.7595 | 94.2
298.15 K, x1 = 0.8421 | 117
308.15 K, x1 = 0.8991 | 75.9
318.15 K, x1 = 0.8421 | 40.3
323.15 K, x1 = 0.8083 | 31.9
323.15 K, x1 = 0.8991 | 34.8
328.15 K, x1 = 0.8083 | 27
328.15 K, x1 = 0.9102 | 30.5
333.15 K, x1 = 0.8991 | 23.6

CC(=O)N(C)C + CCCC[n+]1ccn(C)c1.F[B-](F)(F)F
viscosity [mPa·s], 101 kPa
Conditions | 293.15 K | 298.15 K | 303.15 K | 308.15 K | 313.15 K | 318.15 K | 323.15 K
x1 = 1 | – | – | – | – | 0.778 | – | –
x2 = 0 | 1.02 | 0.94 | 0.87 | 0.82 | 0.78 | 0.74 | 0.72

CCC(C)=O + CCCC[n+]1ccn(C)c1.F[B-](F)(F)F
viscosity [mPa·s]
Conditions | 298.15 K | 303.15 K | 313.15 K | 323.15 K | 333.15 K
100 kPa, x2 = 0 | – | 0.367 | 0.333 | 0.304 | 0.29
100 kPa, x2 = 0.0997 | – | 0.817 | 0.737 | 0.688 | 0.595
100 kPa, x2 = 0.1995 | – | 1.594 | 1.424 | 1.27 | 1.189
100 kPa, x2 = 0.2996 | – | 2.941 | 2.486 | 2.135 | 1.878
100 kPa, x2 = 0.3997 | – | 5.054 | 4.146 | 3.479 | 2.97
100 kPa, x2 = 0.5001 | – | 8.51 | 6.778 | 5.465 | 4.57
100 kPa, x2 = 0.6001 | – | 14.01 | 10.62 | 8.302 | 6.74
100 kPa, x2 = 0.6998 | – | 22.67 | 16.37 | 12.55 | 9.78
100 kPa, x2 = 0.7999 | – | 35.13 | 24.24 | 17.78 | 13.54
100 kPa, x2 = 0.8993 | – | 54.16 | 35.18 | 24.79 | 18.41
101.33 kPa, x1 = 0.1005 | 67.9 | – | – | – | –
101.33 kPa, x1 = 0.3107 | 22.7 | – | – | – | –
101.33 kPa, x1 = 0.6995 | 3.17 | – | – | – | –

CCO + CCOP(=O)([O-])OCC.CC[N+]1(C)CCOCC1
100 kPa, x2 = 0
Conditions | viscosity [mPa·s]
293.15 K | 1.18
298.15 K | 1.11
303.15 K | 0.98
308.15 K | 0.89
313.15 K | 0.82
318.15 K | 0.75
323.15 K | 0.69
328.15 K | 0.65
333.15 K | 0.6
338.15 K | 0.56

CCO + CC[N+]1(C)CCCC1.COP(=O)([O-])OC
100 kPa, x2 = 0
Conditions | viscosity [mPa·s]
308.15 K | 0.9
318.15 K | 0.75
328.15 K | 0.63
333.15 K | 0.58

Cc1ncc[nH]1 + CC[n+]1ccn(C)c1.[Cl-]
101.33 kPa, x2 = 0.667
Conditions | viscosity [mPa·s]
303.15 K | 394
313.15 K | 182.1
323.15 K | 101.5
333.15 K | 57.3
343.15 K | 38
353.15 K | 27

CCCCCCCC[N+](CC)(CC)CC.O=S(=O)([N-]S(=O)(=O)C(F)(F)F)C(F)(F)F + O
101 kPa, x2 = 0.1435
Conditions | viscosity
318.05 K | 36.51 mPa·s and 55.8 mPa·s
323.05 K | 29.74 mPa·s

CCO + CC[n+]1ccn(C)c1.N#C[N-]C#N
viscosity [mPa·s]
Conditions | 298.15 K | 303.15 K | 308.15 K | 313.15 K | 318.15 K | 323.15 K | 328.15 K
100 kPa, x2 = 0 | 1.11 | 1.02 | 0.93 | 0.85 | 0.78 | 0.71 | –
101 kPa, x1 = 1 | – | – | – | 0.83 | – | – | 0.64

CC[S+](CC)CC.O=S(=O)([N-]S(=O)(=O)C(F)(F)F)C(F)(F)F + CCCO
Conditions | viscosity [mPa·s]
313.15 K, 100 kPa, x1 = 0.6987 | 10.75

CCO + C[N+](C)(C)CCC[N+]1(C)CCCCC1.N#C[N-]C#N.N#C[N-]C#N
100 kPa, x2 = 0
Conditions | viscosity [mPa·s]
293.15 K | 1.19
303.15 K | 0.991
313.15 K | 0.828
323.15 K | 0.705
333.15 K | 0.593

C[N+](C)(CCO)CCOCCO.[Cl-] + NC(N)=O
100 kPa, x1 = 0.5
Conditions | viscosity [mPa·s]
283.15 K | 19700
288.15 K | 10900
293.15 K | 5978
298.15 K | 3500
303.15 K | 2189
308.15 K | 1389
313.15 K | 903
318.15 K | 616
323.15 K | 424
328.15 K | 305
333.15 K | 221
338.15 K | 166
343.15 K | 126
348.15 K | 97.9
353.15 K | 77.4
